Laboratory results as given in patent US20200393345A1, “HEPARIN-BASED BLOOD SAMPLER WITHOUT PLATELET ACTIVATION” (Radiometer Medical ApS, priority 2017, published 2020).
“Also recorded” adds a separate entry of the source. Counter-ions that a name gives are not always drawn.

Legend:
Assay type in all cases: cell-based
platelets [1] = assay: Manual platelet count (single platelets, platelet aggregates) in heparinized blood with anti-platelet agents, hemocytometer; conditions: two concentration levels of drug, mixed 15 minutes; for Single platelet count compared to LiHep and PicoSAM controls / Formation of platelet aggregates compared to LiHep and PicoSAM references / Number of platelet aggregates compared to EDTA: venous whole blood in PICO70 samplers with heparin; for Single platelet count compared to EDTA reference: venous whole blood in PICO70 samplers with heparin 60 IU/mL (LiHep or PicoSAM)
Protocol: Each experiment was conducted on a separate day with blood from one voluntary donor testing one anti-platelet drug candidate. For each experiment PICO70 syringe samplers (Radiometer Medical ApS) were prepared just before sample drawing. For “LiHep” (Liquid Heparin) conditions, PICO70 samplers were emptied of the gold ball and heparin brick and 15 μl of aqueous liquid balanced heparin comprising heparin lithium (Celsus Laboratories) and heparin sodium (Celsus Laboratories) (final heparin conc. 60 IU/mL blood) and 15 μl of the solvent of the tested drug were added. For “PicoSAM” conditions, unmodified PICO70 samplers (with gold ball and heparin brick) were used and 15 μl of the solvent of the respective tested drug was added. For “LiHep xxx drug” conditions, PICO70 samplers were emptied as described for LiHep and 15 μl of liquid balanced heparin (final heparin conc. 60 IU/mL blood) and 15 μl of the dissolved tested drug were added. For “PicoSAM xxx drug” conditions, unmodified PICO70 samplers (with gold ball and heparin brick) were used and 15 μl of the dissolved tested drug was added. […] 600 μM and 6 mM) and dipyridamole (Sigma, D9766; dissolved in 1:10 or 1:100 DMSO in saline, final conc. 10 and 100 μM). An EDTA tube (BD Vacutainer with spray-coated K2EDTA, 10 ml) and duplicate samples of all conditions of PICO70 syringe samplers were filled by drawing venous blood via a butterfly needle using a sealed VTC (vented tip cap) to fill the otherwise self-aspirating PICO70 samplers with 1.5 mL venous whole blood. Samplers were inverted 8 times immediately after drawing to insure proper anticoagulation of the samples. The blood samples were mixed gently by hand (samplers without gold ball) or on a SAM mixer (Radiometer Medical ApS) for 15 minutes after drawing the sample. Mixed samples were fixed immediately with 10% formalin solution (1:1 dilution of blood in formalin) for at least 10 minutes and further diluted 1:10 in platelet dilution solution to hemolyze red blood cells (RBCs) to assessed manual platelet count using a hemocytometer. […] Single platelet counts were adjusted for dilution with liquid heparin and or dissolved drug solution to calculate single platelet concentrations.

[2] = test system: WBCs (white blood cells) and platelets; assay: Wet mount images of stained and hemolyzed blood samples; conditions: for Platelets in stained wet mount images (single, aggregated, satellinism) / WBC aggregates in stained wet mount images: PicoSAM samples, 1 μM tirofiban, 20 μM eptifibatide, 100 nM iloprost
Protocol: Venous blood samples were drawn and mixed as described before in Example 1 and used to prepare stained wet mounts images. Blood samples were mixed with a staining and hemolyzing agent (methylene blue and deoxycholic acid, respectively) and incubated at 47° C. in a water bath for 30 seconds. Stained and hemolyzed blood samples were then prepared in wet mount samples on a glass slide and covered with a glass coverslip. Images of stained samples were then acquired with a Leica 750 microscope using a 40× air objective in bright field mode. An image processing software (FIJI, ImageJ) was used to select regions of interest (ROIs) of representative stained WBCs from the images.

platelets [3] = assay: Wet mount phase-contrast images of fixed blood samples, platelet aggregation; conditions: fixed venous blood, 40x phase-contrast; eptifibatide 20 μM added to heparin
Source text: Venous blood samples drawn, mixed and fixed with 10% formalin solution, as described before in Example 1 were used to prepare wet mounts on a glass slide and covered with a glass coverslip. Wet mount samples of fixed blood cells were then imaged with a Leica 750 microscope using a 40× phase-contrast air objective.

OCCN(CCO)c1nc(N2CCCCC2)c2nc(N(CCO)CCO)nc(N3CCCCC3)c2n1 [Dipyridamole, dipyridamole]
Single platelet count compared to LiHep and PicoSAM controls (platelets [1]): slightly higher platelet number

O=C(O)CN(CCN(CC(=O)O)CC(=O)O)CC(=O)O [EDTA, Ethylenediaminetetraacetic acid]
Platelets in stained wet mount images (single, aggregated, satellinism) [2]: same results | WBC aggregates in stained wet mount images [2]: same results | Platelet aggregates in microscopic images (platelets [3]): prevents platelet activation and maintains single platelets; also recorded: cannot be seen

CC#CCC(C)[C@H](O)/C=C/[C@@H]1[C@H]2C/C(=C/CCCC(=O)O)C[C@H]2C[C@H]1O (stereo partly drawn) [Iloprost, iloprost]
Platelets in stained wet mount images (single, aggregated, satellinism) [2]: single platelets, not platelet satellinism | WBC aggregates in stained wet mount images [2]: not platelet satellinism or WBC aggregates | WBC aggregation in the blood sample (leukocyte activation) ([2]; statement in the description): very low WBC aggregation | Single platelet count compared to EDTA reference (platelets [1]): comparable to standard EDTA anticoagulated blood | Formation of platelet aggregates compared to LiHep and PicoSAM references (platelets [1]): reduced the formation of platelet aggregates | Number of platelet aggregates compared to EDTA (platelets [1]): no or few aggregates

N=C(N)NCCC[C@H](N)C(=O)O [L-Arginine]
Single platelet count compared to EDTA reference (platelets [1]): decreased number of platelets | Number of platelet aggregates compared to EDTA (platelets [1]): higher number of platelet aggregates | Single platelet count compared to LiHep and PicoSAM controls (platelets [1]): slightly higher platelet count

O=S(=O)([O-])[O-].[Mg+2] [MgSO4]
Formation of platelet aggregates compared to LiHep and PicoSAM references (platelets [1]): reduced the formation of platelet aggregates

Clc1ccccc1CN1CCc2sccc2C1 [Ticlopidine LiHep, ticlopidine hydrochloride]
Formation of platelet aggregates compared to LiHep and PicoSAM references (platelets [1]): slightly reduced number of aggregates

CCCCS(=O)(=O)N[C@@H](Cc1ccc(OCCCCC2CCNCC2)cc1)C(=O)O [Tirofiban, tirofiban hydrochloride monohydrate]
Platelets in stained wet mount images (single, aggregated, satellinism) [2]: single platelets but also platelet satellinism | WBC aggregates in stained wet mount images [2]: WBC aggregates were also observed | Single platelet count compared to EDTA reference (platelets [1]): comparable to standard EDTA anticoagulated blood | Formation of platelet aggregates compared to LiHep and PicoSAM references (platelets [1]): reduced the formation of platelet aggregates | Number of platelet aggregates compared to EDTA (platelets [1]): no or few aggregates

eptifibatide acetate
Platelets in stained wet mount images (single, aggregated, satellinism) [2]: single platelets but also platelet satellinism | WBC aggregates in stained wet mount images [2]: WBC aggregates were also observed | Single platelet count compared to EDTA reference (platelets [1]): comparable to standard EDTA anticoagulated blood | Formation of platelet aggregates compared to LiHep and PicoSAM references (platelets [1]): reduced the formation of platelet aggregates | Number of platelet aggregates compared to EDTA (platelets [1]): no or few aggregates | Platelet aggregates in microscopic images (platelets [3]): cannot be observed; also recorded: cannot be seen

heparin
Platelet aggregates in microscopic images (platelets [3]): allows or even potentiates platelet aggregation; also recorded: showed platelet aggregates
